PubChem BioAssay AID248 (DTP/NCI, 2004)
Values joined by “and” are separate entries in the source; they are usually repeats but may differ in a detail not shown here. Equal entries are not always repeated. Inconclusive results and toxic doses are left out.

Tested on: L1210 leukemia ip in BDF1 mice, survival T/C
Assay: NCI In Vivo Anticancer Drug Screen. Data for tumor model L1210 Leukemia (intraperitoneal) in B6D2F1 (BDF1) mice
Conditions: endpoint: mean survival time, higher = longer survival
How it was run: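 Transplantable tumor model; survival measured in treated vs vehicle control mice. Value = treated/control.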

[1] = dose: 100.0 mg/kg/injection, schedule: Q04DX003 (ip), vehicle: saline with Tween-80
[2] = dose: 200.0 mg/kg/injection, schedule: Q04DX003 (ip), vehicle: saline with Tween-80
[3] = dose: 50.0 mg/kg/injection, schedule: Q01DX009 (ip), vehicle: saline with Tween-80
[4] = dose: 100.0 mg/kg/injection, schedule: Q01DX009 (ip), vehicle: saline with Tween-80
[5] = dose: 200.0 mg/kg/injection, schedule: Q01DX009 (ip), vehicle: saline with Tween-80
[6] = dose: 100.0 mg/kg/injection, schedule: Q04DX002 (ip), vehicle: Klucel (hydroxypropylcellulose) (HPC)
[7] = dose: 100.0 mg/kg/injection, schedule: Q01DX009 (ip), vehicle: Klucel (hydroxypropylcellulose) (HPC)
[8] = dose: 100.0 mg/kg/injection, schedule: Q04DX003 (ip), vehicle: Klucel (hydroxypropylcellulose) (HPC)
[9] = dose: 200.0 mg/kg/injection, schedule: Q01DX009 (ip), vehicle: Klucel (hydroxypropylcellulose) (HPC)
[10] = dose: 200.0 mg/kg/injection, schedule: Q04DX003 (ip), vehicle: Klucel (hydroxypropylcellulose) (HPC)
[11] = dose: 100.0 mg/kg/injection, schedule: Q01DX001 (ip), vehicle: Klucel (hydroxypropylcellulose) (HPC)
[12] = dose: 200.0 mg/kg/injection, schedule: Q01DX001 (ip), vehicle: Klucel (hydroxypropylcellulose) (HPC)
[13] = dose: 100.0 mg/kg/injection, schedule: Q01DX001 (ip), vehicle: other
[14] = dose: 200.0 mg/kg/injection, schedule: Q01DX001 (ip), vehicle: other
[15] = dose: 400.0 mg/kg/injection, schedule: Q01DX001 (ip), vehicle: other

With `O=C1CCCNc2c(Br)cc(Br)cc21` the T/C (dose: 100.0 mg/kg/injection, schedule: Q01DX001 (ip), vehicle: carboxymethylcellulose (CMC)) was 91 % of control, the T/C (dose: 200.0 mg/kg/injection, schedule: Q01DX001 (ip), vehicle: carboxymethylcellulose (CMC)) was 94 % of control and the T/C (dose: 400.0 mg/kg/injection, schedule: Q01DX001 (ip), vehicle: carboxymethylcellulose (CMC)) was 100 % of control.
In the case of `O=C(C=C(C(F)(F)F)C(F)(F)F)c1ccccc1[N+](=O)[O-]`, the T/C (dose: 6.25 mg/kg/injection, schedule: Q01DX009 (ip), vehicle: other) was 96 % of control, the T/C (dose: 12.5 mg/kg/injection, schedule: Q01DX009 (ip), vehicle: other) was 102 % of control and the T/C (dose: 25.0 mg/kg/injection, schedule: Q01DX009 (ip), vehicle: other) was 102 % of control.
`O=C(O)CS(=O)(=O)Cc1ccccc1` was tested, and the T/C [1] was 97 % of control and the T/C [2] was 90 % of control.
`COc1ccc(C(C)(C)CC(=O)O)cc1` was tested, and the T/C [3] was 97 % of control, the T/C [4] was 100 % of control and the T/C [5] was 90 % of control.
In the case of `O=C(Nc1ccccc1)Nc1cc(Cl)ccc1Cl`, the T/C (dose: 25.0 mg/kg/injection, schedule: Q04DX002 (ip), vehicle: Klucel (hydroxypropylcellulose) (HPC)) was 107 % of control, the T/C (dose: 50.0 mg/kg/injection, schedule: Q04DX002 (ip), vehicle: Klucel (hydroxypropylcellulose) (HPC)) was 90 % of control and the T/C [6] was 90 % of control.
In the case of `N#CC1C(=O)N=C(c2ccccc2)CC1c1ccccc1` (stereo unspecified), the T/C (dose: 100.0 mg/kg/injection, schedule: Q01DX001 (ip), vehicle: saline with Tween-80) was 86 % of control, the T/C (dose: 200.0 mg/kg/injection, schedule: Q01DX001 (ip), vehicle: saline with Tween-80) was 96 % of control and the T/C (dose: 400.0 mg/kg/injection, schedule: Q01DX001 (ip), vehicle: saline with Tween-80) was 104 % of control.
In the case of `C=C1C2CCC3C4(C)CC(OC5OC(CO)C(OS(=O)(=O)O)C(OS(=O)(=O)O)C5OC(=O)CCCC)CC(C(=O)O)C4CCC3(C2)C1O` (stereo unspecified), the T/C (dose: 3.12 mg/kg/injection, schedule: Q01DX009 (ip), vehicle: saline) was 104 % of control, the T/C (dose: 6.25 mg/kg/injection, schedule: Q01DX009 (ip), vehicle: saline) was 92 % of control and the T/C [1] was 98 % of control. The T/C [2] was 106 % of control.
For `CCOC(=O)N1C=Cn2c(cnc2C)C1OCC` (stereo unspecified), the T/C (dose: 50.0 mg/kg/injection, schedule: Q01DX009 (ip), vehicle: saline) was 109 % of control, the T/C (dose: 100.0 mg/kg/injection, schedule: Q01DX009 (ip), vehicle: saline) was 100 % of control and 92 % of control and the T/C (dose: 100.0 mg/kg/injection, schedule: Q04DX003 (ip), vehicle: saline) was 91 % of control. The T/C (dose: 200.0 mg/kg/injection, schedule: Q01DX009 (ip), vehicle: saline) was 110 % of control and 90 % of control, the T/C (dose: 200.0 mg/kg/injection, schedule: Q04DX003 (ip), vehicle: saline) was 94 % of control and the T/C (dose: 400.0 mg/kg/injection, schedule: Q01DX009 (ip), vehicle: saline) was 92 % of control.
In the case of `CCN(CC)c1cc(Cl)c(C=O)cc1[N+](=O)[O-]`, the T/C [7] was 100 % of control, the T/C [8] was 94 % of control and the T/C [9] was 107 % of control. For the same compound, the T/C [10] was 96 % of control, the T/C (dose: 400.0 mg/kg/injection, schedule: Q01DX009 (ip), vehicle: Klucel (hydroxypropylcellulose) (HPC)) was 102 % of control and the T/C (dose: 400.0 mg/kg/injection, schedule: Q04DX003 (ip), vehicle: Klucel (hydroxypropylcellulose) (HPC)) was 102 % of control.
`Cc1ccc(S(=O)(=O)n2cc[nH]c2=O)cc1` was tested, and the T/C [11] was 100 % of control, the T/C [12] was 100 % of control and the T/C (dose: 400.0 mg/kg/injection, schedule: Q01DX001 (ip), vehicle: Klucel (hydroxypropylcellulose) (HPC)) was 105 % of control.
In the case of `CCC(=O)OC1(c2ccccc2)CCN(C/C=C/c2cccc3ccccc23)CC1`, the T/C (dose: 100.0 mg/kg/injection, schedule: Q01DX001 (ip), vehicle: gum acacia) was 103 % of control and the T/C (dose: 200.0 mg/kg/injection, schedule: Q01DX001 (ip), vehicle: gum acacia) was 103 % of control.
In the case of `CCC#CC(O)(C(=O)OCC)C1CCCCC1` (stereo unspecified), the T/C [13] was 104 % of control, the T/C [14] was 96 % of control and the T/C [15] was 104 % of control.
`O=C([O-])CO.[Co+3].[NH2-].[NH2-].[NH2-].[NH2-].[NH2-].[O-][Cl+3]([O-])([O-])O` was tested, and the T/C (dose: 100.0 mg/kg/injection, schedule: Q04DX002 (ip), vehicle: saline) was 103 % of control, the T/C (dose: 200.0 mg/kg/injection, schedule: Q04DX002 (ip), vehicle: saline) was 100 % of control and the T/C (dose: 400.0 mg/kg/injection, schedule: Q04DX002 (ip), vehicle: saline) was 103 % of control.
`COc1ccc(NC(=O)Oc2ccc(Cl)c(C)c2)cc1` was tested, and the T/C [1] was 93 % of control, the T/C [2] was 90 % of control and the T/C (dose: 400.0 mg/kg/injection, schedule: Q04DX003 (ip), vehicle: saline with Tween-80) was 88 % of control.
`O=C(C[n+]1cccc(/C=N\O)c1)c1ccc(-c2ccc(C(=O)C[n+]3cccc(/C=N\O)c3)cc2)cc1` was tested, and the T/C (dose: 1.5 mg/kg/injection, schedule: Q01DX009 (ip), vehicle: Klucel (hydroxypropylcellulose) (HPC)) was 97 % of control, the T/C (dose: 2.5 mg/kg/injection, schedule: Q01DX009 (ip), vehicle: Klucel (hydroxypropylcellulose) (HPC)) was 102 % of control and the T/C (dose: 3.0 mg/kg/injection, schedule: Q01DX009 (ip), vehicle: Klucel (hydroxypropylcellulose) (HPC)) was 97 % of control. For the same compound, the T/C (dose: 4.0 mg/kg/injection, schedule: Q01DX009 (ip), vehicle: Klucel (hydroxypropylcellulose) (HPC)) was 97 % of control, the T/C (dose: 6.0 mg/kg/injection, schedule: Q01DX009 (ip), vehicle: Klucel (hydroxypropylcellulose) (HPC)) was 94 % of control and 102 % of control and the T/C (dose: 9.0 mg/kg/injection, schedule: Q01DX009 (ip), vehicle: Klucel (hydroxypropylcellulose) (HPC)) was 92 % of control. The T/C (dose: 12.0 mg/kg/injection, schedule: Q01DX009 (ip), vehicle: Klucel (hydroxypropylcellulose) (HPC)) was 98 % of control and the T/C (dose: 12.5 mg/kg/injection, schedule: Q01DX009 (ip), vehicle: Klucel (hydroxypropylcellulose) (HPC)) was 111 % of control.
With `CN(C)N=Nc1nn(C2CCCO2)cc1C(N)=O` (stereo unspecified) the T/C (dose: 100.0 mg/kg/injection, schedule: Q01DX005 (ip), vehicle: saline) was 150 % of control.
For `COC(c1ccccc1)[CH]([Hg][Br])C(=O)OC1CC2CCC1(C)C2(C)C` (stereo unspecified), the T/C (dose: 50.0 mg/kg/injection, schedule: Q01DX001 (ip), vehicle: carboxymethylcellulose (CMC)) was 93 % of control.
`C1CC2OC2CCC2OC12` (stereo unspecified) was tested, and the T/C [13] was 95 % of control, the T/C [14] was 106 % of control and the T/C [15] was 101 % of control.
With `Cc1ccc([N+](=O)[O-])cc1NC(=O)N(Cc1ccccc1)Cc1ccccc1` the T/C [6] was 95 % of control, the T/C (dose: 200.0 mg/kg/injection, schedule: Q04DX002 (ip), vehicle: Klucel (hydroxypropylcellulose) (HPC)) was 100 % of control and the T/C (dose: 400.0 mg/kg/injection, schedule: Q04DX002 (ip), vehicle: Klucel (hydroxypropylcellulose) (HPC)) was 106 % of control.
In the case of `CC(N)C(=O)NC(Cc1ccccc1)C(=O)O` (stereo unspecified), the T/C (dose: 100.0 mg/kg/injection, schedule: Q01DX001 (ip), vehicle: acetone) was 101 % of control, the T/C (dose: 200.0 mg/kg/injection, schedule: Q01DX001 (ip), vehicle: acetone) was 97 % of control and the T/C (dose: 400.0 mg/kg/injection, schedule: Q01DX001 (ip), vehicle: acetone) was 101 % of control.
`CS(=O)(=O)c1nnc(-c2ccccc2)s1` was tested, and the T/C [3] was 93 % of control, the T/C [7] was 97 % of control and the T/C [4] was 96 % of control and 90 % of control. For the same compound, the T/C [9] was 94 % of control and the T/C [5] was 93 % of control and 90 % of control.
For `O=C(NCCCl)NC1CC1c1ccccc1` (stereo unspecified), the T/C (dose: 75.0 mg/kg/injection, schedule: Q01DX001 (ip), vehicle: other) was 97 % of control and the T/C (dose: 150.0 mg/kg/injection, schedule: Q01DX001 (ip), vehicle: other) was 103 % of control.
For `CN1CCC23c4ccccc4NC1C21CCN(C)C3Nc2ccccc21`, the T/C (dose: 6.25 mg/kg/injection, schedule: Q01DX Z (ip), vehicle: saline) was 97 % of control, the T/C (dose: 12.5 mg/kg/injection, schedule: Q01DX Z (ip), vehicle: saline) was 110 % of control and the T/C (dose: 25.0 mg/kg/injection, schedule: Q01DX Z (ip), vehicle: saline) was 100 % of control. The T/C (dose: 50.0 mg/kg/injection, schedule: Q01DX Z (ip), vehicle: saline) was 101 % of control, the T/C [7] was 107 % of control and the T/C [9] was 96 % of control.
For `CSc1cc(N)nc2n[nH]nc12`, the T/C [11] was 97 % of control and the T/C [12] was 110 % of control.
With `c1ccc(Sc2cccc3ccccc23)cc1` the T/C [4] was 109 % of control, the T/C [5] was 103 % of control and the T/C (dose: 400.0 mg/kg/injection, schedule: Q01DX009 (ip), vehicle: saline with Tween-80) was 103 % of control.
In the case of `O=Nc1ccc(O)c2ncccc12`, the T/C [8] was 92 % of control and the T/C [10] was 99 % of control.
